Measured values from patent publication US4524206A, “1-Heteroaryl-4-(2,5-pyrrolidinedion-1-yl)alkyl)piperazine derivatives” (Mead Johnson & Company, priority 1983, dated 1985).

experiment: pharmacological profile from the in vivo screening tests and in vitro receptor binding (tranquilizing profile); conditions: potential indicated by test profile
Excerpt: The following in vivo screening tests were utilized as the basis to determine the tranquilizing profile and potential side-effect liabilities of the instant compounds.
As further indication of the psychotropic activity and specificity of the instant compounds, state of the art in vitro central nervous system receptor binding methodology can be employed. […] Inhibition of radiolabeled ligand binding to such specific high affinity sites is considered a measure of a compound's ability to affect corresponding central nervous system functions or cause side effects in vivo. This principle is employed in the following in vitro assay which is given by way of example.
Another test predictive of side effects measures protection against norepinephrine lethality. This procedure essentially relates to alpha-block and the unwanted side effects which accompany it, such as sedation and blood pressure lowering.

Molecule | pharmacological profile
3-(4-Fluorophenyl)-3-methyl-1-[4-[4-(2-pyrimidinyl)-1-piperazinyl]butyl]-2,5-pyrrolidinedione [Example 7] | potential non-dopaminergic antipsychotic activity
O=C1CC(c2ccccc2)(c2ccccc2)C(=O)N1CCCCN1CCN(c2ncccn2)CC1 [Example 9, 3,3-Diphenyl-1-[4-[4-(2-pyrimidinyl)-1-piperazinyl]butyl]-2,5-pyrrolidinedione] | selective anxiolytic potential
O=C1CC2(CCc3ccccc3C2)C(=O)N1CCCCN1CCN(c2ncccn2)CC1 (stereo not drawn) [Example 16, 1'-[4-[4-(2-Pyrimidinyl)-1-piperazinyl]butyl]spiro[1,2,3,4-tetrahydronaphthalene-2,3'-pyrrolidine-2',5'-dione]] | selective anxiolytic potential
